Measurements: US20070293422A1, “Beta-Amyloid Inhibitors and Use Thereof” (priority 2003, published 2007)

Columns and labels:
PC12 cells = format: cell-based
Procedure: Amyloid fibrils are cytotoxic, inducing cell death by apoptosis (Levine et al., 1993). The ability of the compounds of the invention in preventing the amyloid formation can be evaluated by measuring the decrease in the amyloid fibrils cytotoxicity in a cell assay. Toxicity was measured by comparing the effects of samples of Ab1-42 (SEQ ID NO: 11) alone or of mixtures of Ab1-42 combined with the peptides of the invention, on the reduction of the redox active dye, 3-(4,5-dimethylthiazol-2-yl)-2,5-diphenyltetrazolium bromide (MTT) by PC12 cells. […] The cells are incubated for 24 h and thereafter the cellular viability was evaluated using the MTT kit (Kit I (MTT), No. 1 465 007 Roche, Mannheim, Germany). Levels of reduced MTT are determined by measuring the difference in absorbance at 595 and 650 nm using a microplate reader and the extend of cellular viability is then deduced Maximum fibril inhibition is obtained at a peptide concentration of 8 mM for the reference compound of SEQ ID NO: 5 in the fibrillogenesis assay described above. […] Cellular viability is then measured for peptides of the invention by adding the fibrillogenesis assay mixtures containing 1 mM of peptide of the invention (concentration where maximum fibril inhibition is obtained for peptides of the invention) to the PC12 cells after a 20-fold dilution. […]

Aβ1-42 (SEQ ID NO: 11) = target: T1, Aβ1-42 (SEQ ID NO: 11) (Homo sapiens, UniProt P05067); assay: Thioflavine T fluorescence assay of Aβ1-42 amyloid fibril formation (fibrillogenesis assay); format: biochemical
T1 construct: purchased BACHEM H-1368.1000
T1 sequence (P05067 672-713): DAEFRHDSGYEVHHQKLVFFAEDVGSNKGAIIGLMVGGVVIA
Procedure: The percentage of formed fibrils after 2 days incubation with 110 μM of Aβ1-42 (SEQ ID NO: 11) at 37° C. is represented versus the concentration of the peptides of the invention (in μM). 100% of formed fibrils correspond to the fibrils formed in presence of Aβ1-42 alone. Triangles represent data for pAntp (SEQ ID NO: 4) and squares represent data for pAntp-BSB1 (SEQ ID NO: 6). The percentage of formed fibrils for peptides of the invention is compared to that obtained for a known beta-sheet breaker, BSB1 of SEQ ID NO: 5 (Lozenges). Data are the result of three independent experiments in duplicate.
Amyloid formation can be quantitatively evaluated by the fluorescence emission of thioflavine T (ThT) bound to amyloid fibrils, as reported by Levine et al., 1993 and also Soto et al., 1995.
In this assay, peptides of the invention were solubilized in water at different concentration in small Eppendorff tubes and lyophilized.
Ab1-42 (a synthetic peptide with the same sequence as the one deposited in the amyloid plaques in Alzheimer's brain, SEQ ID NO: 11) was solubilized at the concentration of 1 mg/ml in 2 mM NaOH. Aliquots were lyophilized (storage −80° C.). Several aliquots of Ab1-42 at a concentration of 0.5 mg/ml ([…]) were prepared in 0.1M Tris, pH 7.4 and incubated for 2 or 5 days at 37° C. in the absence or in the presence of different concentrations of the pre-lyophilized peptides of the invention (ranged from […]). Thioflavin T was purchased from Sigma (T-3516). For example, 120 μg of Ab1-42 and mixed to 1 μl of DMSO and 239 μl of 0.1M Tris, pH 7.4. From this solution, 120 μl are incubated 5 days at 37° C. and 120 μl are used to solubilize the peptide of the invention at the desired concentration and incubated 5 days at 37° C.
At the end of the incubation period, 50 mM Glycine, pH 9.2 and 2 μM ThT are added to the incubated mixture described above in a final volume of […] (850 μl of pure water, 200 μl of 50 mM Glycine, pH 9.2 and 40 μl of Thioflavin T (1 mM in pure water) are added to 60 μl of sample.
Fluorescence is measured at excitation 435 nm and emission 485 nm in a Perkin Elmer, model LS50B fluorescence spectrometer. Measurements are carried out after the signal is stable for at least 1-2 min. The initial value of fluorescence represents the fluorescence obtained with Ab1-42 peptide alone (highest concentration of fibrils) representing 100% of formed fibrils.
The percentage of inhibition of Ab1-42 fibril formation induced by compounds of the invention can be calculated using an analytical method such as described in Soto et al., 1998.

CC[C@H](C)[C@H](NC(=O)[C@H](CCCCN)NC(=O)[C@@H](NC(=O)[C@H](CCC(N)=O)NC(=O)[C@@H](N)CCCNC(=N)N)[C@@H](C)CC)C(=O)N[C@@H](Cc1c[nH]c2ccccc12)C(=O)N[C@@H](Cc1ccccc1)C(=O)N[C@@H](CCC(N)=O)C(=O)N[C@@H](CC(N)=O)C(=O)N[C@@H](CCCNC(=N)N)C(=O)N[C@@H](CCCNC(=N)N)C(=O)N[C@@H](CCSC)C(=O)N[C@@H](CCCCN)C(=O)N[C@@H](Cc1c[nH]c2ccccc12)C(=O)N[C@@H](CCCCN)C(=O)N[C@@H](CCCCN)C(=O)N[C@@H](CC(C)C)C(=O)N1CCC[C@H]1C(=O)N[C@@H](Cc1ccccc1)C(=O)N[C@@H](Cc1ccccc1)C(=O)N[C@@H](CC(=O)O)C(N)=O [SEQ ID NO: 6]
inhibiting effect on beta-amyloid cellular toxicity compared with BSB1 (PC12 cells; PC12 cells, MTT): higher inhibiting effect on the beta-amyloid cellular toxicity than the beta-sheet breaker itself
% cell viability (PC12 cells; rat, 24 h, 50 µM): 166%
inhibition (Aβ1-42 (SEQ ID NO: 11); 500 μM peptide, Ab1-42 in 0.1M Tris pH 7.4, 37° C., read-out: % Inhibition of amyloid fibrils): 57%
inhibition of the fibrillogenesis process (FIG. 1) (Aβ1-42 (SEQ ID NO: 11); 2 days incubation with 110 μM Aβ1-42 at 37° C.): high degree of inhibition
IC50 (Aβ1-42 (SEQ ID NO: 11); ThT fluorescence, Ab1-42 0.5 mg/ml, 37° C., read-out: IC50 (inhibition of Ab1-42 fibril formation)): ~98 µM

SEQ ID NO: 5: known beta-sheet breaker BSB1 (WO 01/34631), reference peptide (Ac-LPFFD-NH2) [reference compound]
% Inhibition of amyloid fibrils (Aβ1-42 (SEQ ID NO: 11); 500 μM peptide, Ab1-42 0.5 mg/ml in 0.1M Tris pH 7.4, 37° C.): 15%
peptide concentration above which the % of fibrils reaches a plateau (Aβ1-42 (SEQ ID NO: 11); FIG. 1, 110 μM Aβ1-42, 37° C.): does not reach a plateau limit
peptide concentration at which maximum fibril inhibition is obtained (Aβ1-42 (SEQ ID NO: 11); fibrillogenesis assay): 8 mM
